Like-named read-outs stand apart in the source and are kept apart here.
Tests used:
[1] = human serum, spiked at 1 mg/ml, 72 hours at 37° C., HPLC
Method: The stability of the T-1249 mimetibody in vitro was determined using HPLC. The T-1249 mimetibody (SEQ ID NO: 1) was spiked into human serum at 1 mg/ml. Using a C18 chromatography matrix, a peak corresponding to the T-1249 mimetibody was resolved from other serum proteins. […] Samples were taken at 0, 5, 25, and 72 hours after the addition of the T-1249 mimetibody into human serum. A background peak was used as a reference for each sample.

[2] = system: other isolates of HIV including an enfuvirtide-resistant strain; conditions: similar experiments
[3] = cited from earlier work
[4] = system: HIV; conditions: clinical trials; cited from earlier work

T-1249 mimetibody: Formula (II) polypeptide: V1 QIQ, single copy of T-1249, IgG J region, IgG1 hinge, CH2 and CH3; SEQ ID NO: 1
T-1249 mimetibody remained intact [1]: more than 93%
Activity against other isolates of HIV including an enfuvirtide-resistant strain [2]: active

CC[C@H](C)[C@H](NC(=O)[C@H](CCC(N)=O)NC(=O)[C@H](C)NC(=O)[C@H](CCC(N)=O)NC(=O)[C@H](CCC(=O)O)NC(=O)[C@H](CC(C)C)NC(=O)[C@H](CC(C)C)NC(=O)[C@H](C)NC(=O)[C@@H](NC(=O)[C@@H](NC(=O)[C@H](CCCCN)NC(=O)[C@H](CCC(N)=O)NC(=O)[C@H](CCC(=O)O)NC(=O)[C@H](Cc1c[nH]c2ccccc12)NC(=O)[C@H](CCC(=O)O)NC(=O)[C@H](CCC(N)=O)NC(=O)[C@H](Cc1c[nH]c2ccccc12)NC(C)=O)[C@@H](C)CC)[C@@H](C)O)C(=O)N[C@@H](CCC(N)=O)C(=O)N[C@@H](CCC(N)=O)C(=O)N[C@@H](CCC(=O)O)C(=O)N[C@@H](CCCCN)C(=O)N[C@@H](CC(N)=O)C(=O)N[C@@H](CCC(=O)O)C(=O)N[C@@H](Cc1ccc(O)cc1)C(=O)N[C@@H](CCC(=O)O)C(=O)N[C@@H](CC(C)C)C(=O)N[C@@H](CCC(N)=O)C(=O)N[C@@H](CCCCN)C(=O)N[C@@H](CC(C)C)C(=O)N[C@@H](CC(=O)O)C(=O)N[C@@H](CCCCN)C(=O)N[C@@H](Cc1c[nH]c2ccccc12)C(=O)N[C@@H](C)C(=O)N[C@@H](CO)C(=O)N[C@@H](CC(C)C)C(=O)N[C@@H](Cc1c[nH]c2ccccc12)C(=O)N[C@@H](CCC(=O)O)C(=O)N[C@@H](Cc1c[nH]c2ccccc12)C(=O)N[C@@H](Cc1ccccc1)C(N)=O [T-1249 peptide]
plasma half-life ([3]; in vivo): 9 to 14 h

enfuvirtide
Reduction of viral levels in infected patients [4]: 1-2 logs
plasma half-life ([3]; human, plasma): about 1.8 hours

From patent US7744897B2, “Human immunodeficiency virus gp41 mimetibody polypeptides” (priority 2003, dated 2010)
